Target: T1, Human recombinant HDAC6 (Homo sapiens, UniProt Q9UBN7)
T1 sequence (Q9UBN7 1-1215): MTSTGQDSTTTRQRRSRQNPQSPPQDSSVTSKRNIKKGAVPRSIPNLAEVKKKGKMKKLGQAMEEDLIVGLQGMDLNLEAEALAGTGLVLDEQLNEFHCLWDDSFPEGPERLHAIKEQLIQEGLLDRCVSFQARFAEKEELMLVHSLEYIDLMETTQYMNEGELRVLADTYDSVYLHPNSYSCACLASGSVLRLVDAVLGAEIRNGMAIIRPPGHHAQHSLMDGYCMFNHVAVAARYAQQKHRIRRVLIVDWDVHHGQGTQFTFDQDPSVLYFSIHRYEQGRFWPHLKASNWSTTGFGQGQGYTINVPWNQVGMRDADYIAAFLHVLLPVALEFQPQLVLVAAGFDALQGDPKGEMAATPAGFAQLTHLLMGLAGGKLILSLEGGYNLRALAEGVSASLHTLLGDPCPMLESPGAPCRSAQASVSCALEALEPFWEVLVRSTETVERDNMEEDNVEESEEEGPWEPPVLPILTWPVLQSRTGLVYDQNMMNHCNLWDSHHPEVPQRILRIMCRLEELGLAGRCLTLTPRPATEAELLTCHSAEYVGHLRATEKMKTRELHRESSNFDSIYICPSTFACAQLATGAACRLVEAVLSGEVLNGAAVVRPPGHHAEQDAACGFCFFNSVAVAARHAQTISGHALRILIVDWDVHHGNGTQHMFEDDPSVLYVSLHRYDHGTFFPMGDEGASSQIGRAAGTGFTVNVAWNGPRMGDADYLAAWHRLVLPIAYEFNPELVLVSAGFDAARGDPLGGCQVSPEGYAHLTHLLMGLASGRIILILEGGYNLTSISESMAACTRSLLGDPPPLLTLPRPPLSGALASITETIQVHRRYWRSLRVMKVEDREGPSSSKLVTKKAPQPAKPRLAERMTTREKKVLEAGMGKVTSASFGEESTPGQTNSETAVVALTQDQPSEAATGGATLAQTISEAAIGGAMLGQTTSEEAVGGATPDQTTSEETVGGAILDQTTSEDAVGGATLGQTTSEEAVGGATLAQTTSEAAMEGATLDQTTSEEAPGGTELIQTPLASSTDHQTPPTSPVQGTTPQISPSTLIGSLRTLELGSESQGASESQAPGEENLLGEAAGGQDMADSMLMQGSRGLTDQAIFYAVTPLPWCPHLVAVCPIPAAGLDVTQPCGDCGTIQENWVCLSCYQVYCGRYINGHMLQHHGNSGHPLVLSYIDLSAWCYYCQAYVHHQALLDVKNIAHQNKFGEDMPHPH
Experiment: HDAC isomer assay, Fluor-de-Lys, HDAC6
Type: biochemical
Details: proof of concept; FIGS. 11 and 12; read-out: EC50 against HDAC6
Experimental: The HDAC isomer (HDAC1, 3, and 6) assays were performed as follows:
Materials: Human recombinant HDAC isomer (HDAC1, HDAC3, and HDAC6); Fluor-de-Lys HDAC substrates; 360 nm excitation 460 nm emission Plate Reader; Disposable pipettes; Pipet-aid; Pipette tips; Micro-pipetter; DMSO; Sterile micro-tubes and conical tubes; and Micro-centrifuge.
Test compounds and control preparation: All test compounds' stock solutions were made in 100% DMSO. Test compound dilutions were made in HDAC Assay buffer with a final concentration of DMSO less than or equal to 1%. Vehicle control was HDAC Assay buffer with 1% DMSO.
The reagents for the assay were prepared as follows:
1. All kit components were defrosted and these, and all dilutions described below, were kept on ice until use.
2. A sufficient amount of HDAC source diluted in Assay Buffer (BML-KI143) was prepared to provide for the assays that were performed (# of wells×15 μl). A 30-fold dilution of the HeLa Extract means that 15p L contains 0.5 μl of the undiluted Extract, an appropriate amount to use per well.
3. Dilution(s) of SAHA and/or Test Inhibitors were prepared in Assay Buffer (BML-KI143). Since 10 μl were used per well, and since the final volume of the HDAC reaction was 50p, these inhibitor dilutions were 5× their final concentration.
4. Dilution(s) of the Fluor de Lys® Substrate (BML-KI104; 50 mM) were prepared in Assay Buffer (BML-KI143) that were 2× the desired final concentration(s). For inhibitor screening, substrate concentrations at or below the Km are recommended. Twenty-five μL were used per well. […] Rapid mixing and dilution into room temperature buffer helped to prevent precipitation at high substrate concentration.
5. Shortly before use (<30 min.), sufficient Fluor de Lys® Developer was prepared for the assays to be performed (50 μl per well). First, the Fluor de Lys® Developer Concentrate was diluted 20-fold (e.g. 50 μl plus 950 μl Assay Buffer) in cold Assay Buffer (BML-K1143). […] The addition of SAHA to the Developer insures that HDAC activity stops when the Developer is added. The Developer was kept on ice until use.
1. Assay buffer, diluted trichostatin A or test inhibitor was added to appropriate wells of the microtiter plate.
2. Diluted HeLa extract or other HDAC sample was added to all wells except those that are to be “No Enzyme Controls.”
3. Diluted Fluor de Lys® Substrate and the samples in the microtiter plate were allowed to equilibrate to assay temperature (e.g. 25 or 37° C.).
4. HDAC reactions were initiated by adding diluted substrate (25 μl) to each well and mixing thoroughly.
5. HDAC reactions were allowed to proceed for desired length of time and then stop them by addition of Fluor de Lys® Developer (50 μl). The plates were incubated at room temperature (25° C.) for 10-15 min.
6. Samples were read in a microtiter-plate reading fluorimeter capable of excitation at a wavelength in the range 350-380 nm and detection of emitted light in the range 440-460 nm.

SMILES | EC50 [µM]
Nc1cccc2c1CN(C1CCC(=O)NC1=O)C2=O (centres unmarked) [lenalidomide, reference compound] | > 25
O=C1CCCC(=O)N1 [glutaramide, glutarimide, reference compound] | > 25
